Values joined by “and” are separate entries in the source; they are usually repeats but may differ in a detail not shown here. Equal values may be shown once. Toxic doses and inconclusive results are not listed. Cut-off read from the data, not from the text of the source: active = T/C of 150% or more; inactive = T/C below 125%.
Tested on: L1210 leukemia ip in BDF1 mice, survival T/C
Test: NCI In Vivo Anticancer Drug Screen. Data for tumor model L1210 Leukemia (intraperitoneal) in B6D2F1 (BDF1) mice
Details: endpoint: mean survival time, higher = longer survival
In short: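 Antitumor effect is assessed in tumor-bearing animals. Survival in the compound arm is compared with a vehicle-dosed control arm and expressed as their quotient.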

[1] = dose: 100.0 mg/kg/injection, schedule: Q04DX002 (ip), vehicle: Klucel (hydroxypropylcellulose) (HPC)
[2] = dose: 200.0 mg/kg/injection, schedule: Q04DX002 (ip), vehicle: Klucel (hydroxypropylcellulose) (HPC)
[3] = dose: 400.0 mg/kg/injection, schedule: Q04DX002 (ip), vehicle: Klucel (hydroxypropylcellulose) (HPC)
[4] = dose: 50.0 mg/kg/injection, schedule: Q01DX001 (ip), vehicle: carboxymethylcellulose (CMC)
[5] = dose: 100.0 mg/kg/injection, schedule: Q01DX001 (ip), vehicle: carboxymethylcellulose (CMC)
[6] = dose: 200.0 mg/kg/injection, schedule: Q01DX001 (ip), vehicle: carboxymethylcellulose (CMC)
[7] = dose: 100.0 mg/kg/injection, schedule: Q04DX003 (ip), vehicle: gum acacia
[8] = dose: 200.0 mg/kg/injection, schedule: Q04DX003 (ip), vehicle: gum acacia
[9] = dose: 400.0 mg/kg/injection, schedule: Q01DX001 (ip), vehicle: carboxymethylcellulose (CMC)
[10] = dose: 100.0 mg/kg/injection, schedule: Q01DX001 (ip), vehicle: saline
[11] = dose: 200.0 mg/kg/injection, schedule: Q01DX001 (ip), vehicle: saline
[12] = dose: 400.0 mg/kg/injection, schedule: Q01DX001 (ip), vehicle: saline
[13] = dose: 100.0 mg/kg/injection, schedule: Q01DX009 (ip), vehicle: saline with Tween-80
[14] = dose: 100.0 mg/kg/injection, schedule: Q04DX003 (ip), vehicle: Klucel (hydroxypropylcellulose) (HPC)
[15] = dose: 200.0 mg/kg/injection, schedule: Q04DX003 (ip), vehicle: Klucel (hydroxypropylcellulose) (HPC)
[16] = dose: 400.0 mg/kg/injection, schedule: Q04DX003 (ip), vehicle: Klucel (hydroxypropylcellulose) (HPC)

Measured: T/C

O=C(O)COc1ccc(F)c(F)c1
inactive: [1] 90 % of control | [2] 104 % of control | [3] 93 % of control

CN1c2ccccc2Sc2ccccc21
inactive: [4] 94 % of control | [5] 96 % of control | [6] 107 % of control

O=c1nccc[nH]1
inactive: dose: 100.0 mg/kg/injection, schedule: Q04DX003 (ip), vehicle: saline 97 % of control | dose: 200.0 mg/kg/injection, schedule: Q04DX003 (ip), vehicle: saline 97 % of control

CCCCNS(=O)(=O)c1ccc(Cl)c([N+](=O)[O-])c1
inactive: dose: 12.5 mg/kg/injection, schedule: Q04DX003 (ip), vehicle: Klucel (hydroxypropylcellulose) (HPC) 95 % of control | dose: 25.0 mg/kg/injection, schedule: Q04DX003 (ip), vehicle: Klucel (hydroxypropylcellulose) (HPC) 103 % of control | dose: 50.0 mg/kg/injection, schedule: Q04DX003 (ip), vehicle: Klucel (hydroxypropylcellulose) (HPC) 100 % of control | [7] 103 % of control | [8] 105 % of control

Nc1ncc(CNc2ccc(C(=O)NC(CCC(=O)O)C(=O)O)cc2)c(N)n1 (stereo not drawn)
inactive: [5] 98 % of control | [6] 96 % of control | [9] 98 % of control

CCc1ccccc1NC(=O)Nc1cccc2ccccc12
inactive: dose: 100.0 mg/kg/injection, schedule: Q01DX009 (ip), vehicle: gum acacia 98 % of control | [7] 96 % of control | dose: 200.0 mg/kg/injection, schedule: Q01DX009 (ip), vehicle: gum acacia 95 % of control | [8] 96 % of control | dose: 400.0 mg/kg/injection, schedule: Q01DX009 (ip), vehicle: gum acacia 88 % of control | dose: 400.0 mg/kg/injection, schedule: Q04DX003 (ip), vehicle: gum acacia 93 % of control

C/C(=N/NC(N)=O)c1cccc([N+](=O)[O-])c1
inactive: [10] 89 % of control | [11] 89 % of control | [12] 93 % of control

COc1ccccc1CN1CCCN(Cc2ccccc2OC)C1c1ccc(N(CCCl)CCCl)cc1Cl
inactive: [4] 95 % of control | [5] 101 % of control | [6] 98 % of control | [9] 95 % of control

NCc1ccc(OCc2nc(N)nc(N)c2-c2ccc(Cl)cc2)cc1
inactive: dose: 25.0 mg/kg/injection, schedule: Q01DX001 (ip), vehicle: saline with Tween-80 97 % of control | dose: 50.0 mg/kg/injection, schedule: Q01DX001 (ip), vehicle: saline with Tween-80 87 % of control | dose: 100.0 mg/kg/injection, schedule: Q01DX001 (ip), vehicle: saline with Tween-80 95 % of control and 96 % of control

CCOC(=O)C(CCCCC(NC(C)=O)(C(=O)OCC)C(=O)OCC)(NC(C)=O)C(=O)OCC
inactive: [13] 92 % of control | dose: 200.0 mg/kg/injection, schedule: Q01DX009 (ip), vehicle: saline with Tween-80 94 % of control | dose: 400.0 mg/kg/injection, schedule: Q01DX009 (ip), vehicle: saline with Tween-80 92 % of control

CCOc1cc(C#N)c(OCC)cc1N
inactive: [10] 103 % of control | [11] 101 % of control

O=c1[nH]c2ccccc2o1
inactive: dose: 75.0 mg/kg/injection, schedule: Q01DX001 (ip), vehicle: Klucel (hydroxypropylcellulose) (HPC) 101 % of control | dose: 150.0 mg/kg/injection, schedule: Q01DX001 (ip), vehicle: Klucel (hydroxypropylcellulose) (HPC) 100 % of control | dose: 200.0 mg/kg/injection, schedule: Q04DX002 (ip), vehicle: saline 92 % of control | dose: 300.0 mg/kg/injection, schedule: Q01DX001 (ip), vehicle: Klucel (hydroxypropylcellulose) (HPC) 103 % of control | dose: 400.0 mg/kg/injection, schedule: Q04DX002 (ip), vehicle: saline 114 % of control

CC1=C(C)CC(C(Cl)(Cl)Cl)C([N+](=O)[O-])C1 (stereo not drawn)
inactive: [13] 96 % of control

N#CC(Nc1cc(=O)[nH]c(=O)[nH]1)c1ccccc1 (stereo not drawn)
inactive: [1] 105 % of control | [2] 108 % of control

O=C(Nc1cccnc1)Nc1ccc(Cl)c(Cl)c1
inactive: [14] 98 % of control | [15] 93 % of control | [16] 94 % of control

C=C1C(=O)O[C@@H]2/C=C(\C)CC/C=C(/C)CC[C@@H]12
inactive: dose: 50.0 mg/kg/injection, schedule: Q01DX001 (ip), vehicle: saline 101 % of control | [10] 86 % of control | [11] 93 % of control | [12] 86 % of control

COc1ccc(C(CC(=O)c2ccc3c(c2)OCO3)C(=O)O)cc1OC (stereo not drawn)
inactive: dose: 100.0 mg/kg/injection, schedule: Q01DX009 (ip), vehicle: Klucel (hydroxypropylcellulose) (HPC) 93 % of control | [14] 100 % of control | dose: 200.0 mg/kg/injection, schedule: Q01DX009 (ip), vehicle: Klucel (hydroxypropylcellulose) (HPC) 98 % of control | [15] 96 % of control | dose: 400.0 mg/kg/injection, schedule: Q01DX009 (ip), vehicle: Klucel (hydroxypropylcellulose) (HPC) 93 % of control | [16] 93 % of control

CCCCCC(CN(C)C)C(O)CCc1ccc(Cl)c(Cl)c1 (stereo not drawn)
inactive: dose: 25.0 mg/kg/injection, schedule: Q04DX002 (ip), vehicle: Klucel (hydroxypropylcellulose) (HPC) 93 % of control | dose: 50.0 mg/kg/injection, schedule: Q04DX002 (ip), vehicle: Klucel (hydroxypropylcellulose) (HPC) 93 % of control | [1] 104 % of control | [2] 88 % of control | [3] 117 % of control

From PubChem BioAssay AID248 (DTP/NCI, 2004)
